Test results published in patent publication EP0059009A1, “Pharmaceutical compositions containing quinoline derivatives as active component, a method for the preparation of such compositions, new quinoline derivatives and a method for the preparation thereof” (ACF Chemiefarma N.V., priority 1981, dated 1982).

Assays:
guinea pigs = experiment: Guinea pigs electrostimulation test (arrhythmias induced by electrostimulation of the right ventricle); type: in vivo; settings: for Percent increase in voltage (%) required for arrhythmia: given intraduodenally 30 min before stimulation, anaesthetised guinea pigs, treated vs control animals
Procedure: Arrhythmias are induced in guinea pigs by electro- stimulation of the right ventricle of the heart. The animals are anaesthesized with urethane (1.2 g/kg i.p.) and artificially respirated before a needle electrode is inserted in the right venticle of the heart. Substances are given intraduodinally 30 min. before the stimulation at a standard dose of 32 mg/kg.
The voltage needed for induction of extra systoles in control animals (n = 6) is compared with that required for induction of arrhythmias in treated animals (n = 6).
-This method is based on the work of L. Szekeres and G.J. Papp, Naunyn-Schmiedebergs Arch. Exp. Path. Pharmak., 245, 70 (1963).

malaria = settings: reported by Ainly and King, Proc. Roy. Soc. (London) B 125, 49 (1938); cited from earlier work

C=CC1CNCCC1CCC(O)c1ccnc2ccc(OC)cc12 (stereo not drawn) [I, Quinicinol-l.bifumarate]
Percent increase in voltage (%) required for arrhythmia (guinea pigs; Dose 16 mg/kg): 25% | Percent increase in voltage (%) required for arrhythmia (guinea pigs; Dose 32 mg/kg): 114%

C=CC1CNCCC1CCC(O)c1ccnc2ccccc12 (stereo not drawn) [III]
Percent increase in voltage (%) required for arrhythmia (guinea pigs; Dose 32 mg/kg): 35%

CCC1CNCCC1CCC(O)c1ccnc2ccc(OC)cc12 (stereo not drawn) [II]
Percent increase in voltage (%) required for arrhythmia (guinea pigs; Dose 16 mg/kg): 33.9% | Percent increase in voltage (%) required for arrhythmia (guinea pigs; Dose 32 mg/kg): 176%

CCC1CNCCC1CC(O)Cc1ccnc2ccc(OC)cc12 (stereo not drawn) [Reference com-pound of formula 6a, reference compound]
Percent increase in voltage (%) required for arrhythmia (guinea pigs; Dose 16 mg/kg): 0% | anti-arrhythmic screen using the electro-stimulation test (guinea pigs; result in words, dose not given): inactive

CCC1CNCCC1CCC(O)c1ccnc2ccc(OCCC(C)C)cc12 (stereo not drawn) [VII]
Percent increase in voltage (%) required for arrhythmia (guinea pigs; Dose 23.5 mg/kg): 85%

CCC1CNCCC1CCC(O)c1ccnc2ccc(OC)cc12 (stereo not drawn) [dihydroquiniconol, dihydroquinicinol]
anti-malaria activity (malaria): did not show anti-malaria activity
